Experimental data: patent publication US20230190870A1, “Method for Treating Lysosomal Storage Diseases with Histatin Peptides” (THE BOARD OF TRUSTEES OF THE UNIVERSITY OF ILLINOIS, priority 2020, published 2023)
“Also recorded” adds a separate entry of the source. Square brackets hold non-standard residues; d marks the D form. Peptide text beside a SMILES is read from it. pS = N[C@@H](COP(=O)(O)O)C(=O)O

Assays:
NPC1 KD cells = experiment: Filipin staining of cholesterol in NPC1 knockdown cells; assay type: cell-based; details: 20 μM or 50 μM
Excerpt: Cholesterol. […] Filipin staining, the generally accepted tool for detection of cholesterol deposits in NPC cells (Vanier, et al. (2003) Clin. Genet. 64:269-81), was used to visualize cholesterol in control and NPC1 KD cells. This analysis indicated increased clustering and collection of filipin-stained cholesterol in NPC1 KD cells, consistent with the NPC1 phenotype.

[1] = test system: NPC knockout fibroblasts (NPC1−/−); experiment: Filipin and LAMP1 staining in NPC knockout fibroblasts; assay type: cell-based, human
Experimental: In addition, cholesterol accumulation in wild type human skin fibroblasts or NPC knockout fibroblasts (NPC1^−/−) were evaluated with or without Hst1 treatment. […] Additionally, LAMP1 lysosomal marker accumulation in untreated NPC1^−/− cells were normalized with Hst1 treatment.

[2] = test system: human corneal epithelial (HCE) cells; experiment: Boyden chamber cell migration assay; assay type: cell-based
Experimental: Transfection/Knock-Down of TMEM97. Sub-confluent monolayers of HCE cells in grown in 35-mm six-well plates were transfected with reaction mixtures composed of 100 pmol of small interfering RNA (siRNA) to TMEM97 (Santa Cruz Biotechnology; Dallas, Tex.) for 48 hours and 5 μL of transfection reagent sold under the tradename LIPOFECTAMINE® 2000 (Invitrogen; Carlsbad, Calif.) in culture medium sold under the tradename OPTI-MEMO media (Gibco Life Technologies; Grand Island, N.Y.). Complexes were incubated for 20 minutes at 24° C. and then added to cells at 37° C. Incubation was continued for 24 to 48 hours at 37° C. in 5% CO2. Knock-down (KD) of TMEM97 was confirmed by western blot analysis using a rabbit anti-TMEM97 antibody (Novus Bio.; Littleton, Colo.).
Cell Migration Assay. HCE migration assays were performed in a 48-well micro-chemotaxis chamber (Neuro Probe, Inc.; Cabin John, Md.), following the manufacturer's instructions and following a modification of prior reports. Polyester membranes (Neuro Probe, Inc.; Gaithersburg, Md.) with 12 μm pores were used. Cells were incubated with Hst1 for 6 hours, harvested using Versene (Life Technologies, Corp.; Grand Island, N.Y.), resuspended in RPMI-1640 medium (Life Technologies, Corp.; Grand Island, N.Y.) containing 0.5% FBS. The bottom chamber was loaded with RPMI-1640 media containing 2% FBS, and the filter was laid over the media. […]

[3] = test system: Human corneal epithelial cells; experiment: Cell viability of BAK-treated human corneal epithelial cells; assay type: cell-based; details: benzalkonium chloride (BAK) treatment
Excerpt: Apoptosis. […] BAK and hOsm are standard inducers of corneal epithelial and neuronal cell death and toxicity, phenomena which are associated with ocular surface pain and chronic pain syndromes.

CC(C)C[C@H](NC(=O)[C@H](Cc1ccc(O)cc1)NC(=O)[C@H](CC(N)=O)NC(=O)[C@H](CO)NC(=O)CNC(=O)[C@H](Cc1ccc(O)cc1)NC(=O)[C@H](CC(=O)O)NC(=O)CNC(=O)[C@H](Cc1ccc(O)cc1)NC(=O)[C@H](Cc1ccccc1)NC(=O)[C@@H]1CCCN1C(=O)[C@H](Cc1ccccc1)NC(=O)[C@H](CCC(=O)O)NC(=O)[C@H](CCCNC(=N)N)NC(=O)[C@H](Cc1c[nH]cn1)NC(=O)[C@H](CO)NC(=O)[C@H](Cc1c[nH]cn1)NC(=O)[C@H](Cc1c[nH]cn1)NC(=O)[C@H](CCCCN)NC(=O)[C@H](CCC(=O)O)NC(=O)[C@H](Cc1c[nH]cn1)NC(=O)[C@H](Cc1ccccc1)NC(=O)[C@H](CCCCN)NC(=O)[C@H](CCCNC(=N)N)NC(=O)[C@H](CCCNC(=N)N)NC(=O)[C@H](Cc1ccc(O)cc1)NC(=O)CNC(=O)[C@H](Cc1c[nH]cn1)NC(=O)[C@H](Cc1c[nH]cn1)NC(=O)[C@H](CCCNC(=N)N)NC(=O)[C@H](CCCCN)NC(=O)[C@H](CCC(=O)O)NC(=O)[C@H](Cc1c[nH]cn1)NC(=O)[C@H](COP(=O)(O)O)NC(=O)[C@@H](N)CC(=O)O)C(=O)N[C@@H](Cc1ccc(O)cc1)C(=O)N[C@@H](CC(=O)O)C(=O)N[C@@H](CC(N)=O)C(=O)O [Hst1] (H-D[pS]HEKRHHGYRRKFHEKHHSHREFPFYGDYGSNYLYDN-OH; N-terminus and C-terminus assumed)
cholesterol accumulation (Filipin staining) (NPC1 KD cells): reduced cholesterol accumulation | LAMP1 lysosomal marker accumulation [1]: normalized | cholesterol accumulation (Filipin stained cells) [1]: reduction in cholesterol accumulation | transmigration response in TMEM97 KD cells ([2]; siRNA knock-down of TMEM97): inhibits; also recorded: abolished this response | cellular transmigration ([2]; toward 2% FBS stimulus): dose-dependent increase in cellular transmigration | BAK-induced loss of cell viability [3]: abrogated
